Structures can show the parent of a compound that is named as a salt.
How the values were obtained:
Assay in all cases: two-electrode voltage clamp, oocytes, G
Format in all cases: cell-based
[1] = biological target: T1, human M channel (hKV7.2/7.3) (Homo sapiens, UniProt O43525+O43526); conditions: 100 µM; pH 7.4, room temperature; not significant
[2] = biological target: T1, human M channel (hKV7.2/7.3)
[3] = biological target: Shaker KV channel (Shaker H4, Δ6-46; "WT Shaker KV channel") (Drosophila melanogaster, UniProt P08510, DEL6-46/R362Q)
[4] = biological target: Shaker KV channel (Shaker H4, Δ6-46; "WT Shaker KV channel") (Drosophila melanogaster, UniProt P08510, DEL6-46/L358R/R362Q)

T1 sequence (O43526 whole entry): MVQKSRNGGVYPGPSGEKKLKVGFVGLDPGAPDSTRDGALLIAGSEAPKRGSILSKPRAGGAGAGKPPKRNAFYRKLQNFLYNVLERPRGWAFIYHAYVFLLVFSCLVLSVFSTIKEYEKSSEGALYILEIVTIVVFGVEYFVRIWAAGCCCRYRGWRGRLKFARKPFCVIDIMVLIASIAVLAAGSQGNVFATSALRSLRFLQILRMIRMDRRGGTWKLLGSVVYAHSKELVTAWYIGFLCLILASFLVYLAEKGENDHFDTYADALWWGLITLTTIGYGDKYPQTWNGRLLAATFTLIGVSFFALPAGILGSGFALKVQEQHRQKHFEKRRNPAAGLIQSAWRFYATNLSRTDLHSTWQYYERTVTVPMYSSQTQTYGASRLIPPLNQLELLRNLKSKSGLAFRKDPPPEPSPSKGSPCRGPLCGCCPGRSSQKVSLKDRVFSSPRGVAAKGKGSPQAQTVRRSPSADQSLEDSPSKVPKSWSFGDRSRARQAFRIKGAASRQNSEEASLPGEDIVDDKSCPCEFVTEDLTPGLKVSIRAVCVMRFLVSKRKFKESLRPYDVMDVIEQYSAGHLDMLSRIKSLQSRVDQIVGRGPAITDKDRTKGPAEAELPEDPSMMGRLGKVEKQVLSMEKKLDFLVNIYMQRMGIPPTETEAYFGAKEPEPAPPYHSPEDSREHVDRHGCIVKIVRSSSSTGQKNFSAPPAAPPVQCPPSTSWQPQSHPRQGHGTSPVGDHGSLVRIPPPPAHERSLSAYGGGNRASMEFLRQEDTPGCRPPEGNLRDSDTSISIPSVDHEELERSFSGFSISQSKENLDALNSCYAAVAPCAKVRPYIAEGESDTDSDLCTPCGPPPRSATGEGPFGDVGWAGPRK
T1 sequence (O43525 whole entry): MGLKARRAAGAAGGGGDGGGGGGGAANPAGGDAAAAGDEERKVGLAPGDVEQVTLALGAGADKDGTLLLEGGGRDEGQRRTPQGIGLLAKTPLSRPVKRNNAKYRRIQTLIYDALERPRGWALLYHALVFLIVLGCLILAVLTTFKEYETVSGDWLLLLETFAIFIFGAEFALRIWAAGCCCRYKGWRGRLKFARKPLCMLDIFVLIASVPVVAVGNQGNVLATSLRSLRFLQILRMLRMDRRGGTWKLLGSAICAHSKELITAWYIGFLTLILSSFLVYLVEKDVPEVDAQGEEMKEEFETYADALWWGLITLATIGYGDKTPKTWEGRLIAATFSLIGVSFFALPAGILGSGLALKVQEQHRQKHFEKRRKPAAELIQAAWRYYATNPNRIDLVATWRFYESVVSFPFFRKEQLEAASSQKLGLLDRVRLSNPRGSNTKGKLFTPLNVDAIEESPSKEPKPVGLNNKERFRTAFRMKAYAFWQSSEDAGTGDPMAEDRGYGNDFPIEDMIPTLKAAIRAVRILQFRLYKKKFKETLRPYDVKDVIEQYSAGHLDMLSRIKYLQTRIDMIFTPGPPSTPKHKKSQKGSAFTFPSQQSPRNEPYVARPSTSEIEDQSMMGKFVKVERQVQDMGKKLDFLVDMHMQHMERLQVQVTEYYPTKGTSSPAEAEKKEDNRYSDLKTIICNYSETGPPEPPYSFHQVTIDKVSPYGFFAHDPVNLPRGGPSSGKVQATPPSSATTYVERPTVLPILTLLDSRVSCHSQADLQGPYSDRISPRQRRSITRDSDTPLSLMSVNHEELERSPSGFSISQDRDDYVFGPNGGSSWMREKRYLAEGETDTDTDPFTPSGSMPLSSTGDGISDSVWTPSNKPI

| ΔV ± SEM [1] | EC50 [2] [µM] | EC50 [3] [µM] | EC50 [4] [µM] | Compound |
| --- | --- | --- | --- | --- |
| –1.5 ± 0.4 mV |  |  |  | CC(C)c1ccc2c(c1)CC[C@H]1[C@](C)(CNS(C)(=O)=O)CCC[C@]21C [Wu110, N-(((1R,4aS,10aR)-7-isopropyl-1,4a-dimethyl-1,2,3,4,4a,9,10,10a-octahydrophenanthren-1-yl)methyl)methanesulfonamide] |
|  | 62 ± 15 | 36 | 70 | CC(C)c1ccc2c(c1)CC[C@H]1[C@](C)(COS(=O)(=O)O)CCC[C@]21C [Wu161, ((1R,4aS,10aR)-7-isopropyl-1,4a-dimethyl-1,2,3,4,4a,9,10,10a-octahydrophenanthren-1-yl)methyl hydrogen sulfate] |
|  | 12 ± 3 |  |  | C[C@@]1(COS(=O)(=O)O)CCC[C@]2(C)c3cc(Cl)c(Cl)c(Cl)c3CC[C@@H]12 [Wu181, ((1R,4aS,10aR)-6,7,8-trichloro-1,4a-dimethyl-2,3,4,9,10,10a-hexahydrophenanthrene-1-yl)methyl hydrogen sulfate] |

Reference: paper PMC5940250 (The Journal of General Physiology, 2018)
